What was measured:
Type in all cases: in vivo
[1] = test system: Erysiphe graminis tritici (powdery mildew); assay: Test 1 greenhouse foliar spray screen, powdery mildew on wheat; conditions: Blumeria graminis, foliar, Test 1, foliar spray on wheat; disease control rating at 400 ppm / 100 ppm; read-out: POWD MDEW
[2] = test system: Pyricularia oryzae (rice blast); assay: whole plant or invertebrate; conditions: Pyricularia oryzae, foliar, read-out: RICE BLAST, Test 1, foliar spray on rice; disease control rating at 400 ppm / 100 ppm
[3] = test system: Puccinia recondita tritici (leaf rust); assay: Test 1 greenhouse foliar spray screen, leaf rust on wheat; conditions: Puccinia recondita, foliar, Test 1, foliar spray on wheat; disease control rating at 400 ppm / 100 ppm
[4] = test system: Botrytis cinerea (gray mold); assay: Test 1 greenhouse foliar spray screen, gray mold on grape berries; conditions: Botrytis cinerea, foliar; Test 1, spray on grape berries; disease control rating at 400 ppm / 100 ppm
[5] = test system: Pseudoperonospora cubensis (downy mildew); assay: Test 1 greenhouse foliar spray screen, downy mildew on squash; conditions: Pseudoperonospora cubensis, foliar, Test 1, foliar spray on squash; disease control rating at 400 ppm / 100 ppm; read-out: DOWN MDEW
[6] = test system: southern armyworm (Spodopetra eridania Cramer); assay: Mite/insect screen, SAW; conditions: Spodoptera eridania, foliar, percent mortality, foliar spray on squash, read-out: SAW RESULTS %; for mortality at 200 ppm: rate 200 ppm; for mortality at 400 ppm: rate 400 ppm
Procedure, shortened: (§1)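 Activity is expressed as percent mortality at the indicated spray concentrations. Plants are sprayed to runoff on upper and lower leaf surfaces with aqueous dilutions of an acetone/alcohol emulsifiable formulation, then dried for one hour.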

[7] = test system: Twospotted spider mites (Tetranychus urticae Koch); assay: Mite/insect screen, SM; conditions: for mortality at 200 ppm / mortality at 400 ppm: Tetranychus urticae, foliar, percent mortality, foliar spray on squash, read-out: SM RESULTS %; for mortality at 200 ppm: rate 200 ppm; for mortality at 400 ppm: rate 400 ppm; for activity as miticides: summary statement in the description
Procedure, shortened: as §1

[8] = test system: melon aphids (Aphis gossypii Glover); assay: Mite/insect screen, MA; conditions: Aphis gossypii, foliar, percent mortality, foliar spray on squash, read-out: MA RESULTS %; for mortality at 200 ppm: rate 200 ppm; for mortality at 400 ppm: rate 400 ppm
Procedure, shortened: as §1

[9] = test system: corn rootworm; assay: Mite/insect screen, CRW; conditions: percent mortality, read-out: CRW RESULTS %; for mortality at 12 ppm: CRW rate 12.00 ppm; for mortality at 24 ppm: CRW rate 24.00 ppm
Procedure, shortened: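 Each compound, taken up in an emulsifier-containing acetone/alcohol mixture and diluted in water to the stated concentrations, was assessed for percent kill following standard exposure times.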

Structure (SMILES)	pest or weed control at 400 ppm [1] [%]	pest or weed control at 400 ppm [2] [%]	pest or weed control at 400 ppm [3] [%]	pest or weed control at 400 ppm [4] [%]	pest or weed control at 400 ppm [5] [%]	mortality at 200 ppm [6] [%]	mortality at 400 ppm [6] [%]	mortality at 200 ppm [7] [%]	mortality at 400 ppm [7] [%]	mortality at 200 ppm [8] [%]	mortality at 400 ppm [8] [%]	mortality at 12 ppm [9] [%]	mortality at 24 ppm [9] [%]	activity as miticides [7]
Cc1ccc(CCOc2ccnc3cc(Cl)ccc23)cc1 [Example 204, 7-chloro-4-[2-(4-methylphenyl)ethoxy]quinoline]	20 to 89	0 to 19	20 to 89	0 to 19	20 to 89	0	100	0	0	0	50	0	0	
Cc1ccccc1CCOc1ccnc2c(F)cccc12 [Example 205, 8-fluoro-4-[2-(2-methylphenyl)ethoxy]quinoline]	90 to 100	90 to 100	90 to 100	0 to 19	90 to 100		0		0		0		0	
CC(Cc1ccccc1)Oc1ccnc2c(F)cccc12 (stereo not shown) [Example 214, 8-fluoro-4-[1-(phenylmethyl)ethoxy]quinoline]	20 to 89	90 to 100	20 to 89	0 to 19	90 to 100		0		0		0		0	
Clc1ccc(CCOc2ccnc3c(Br)cccc23)cc1 [Example 215, 8-bromo-4-[2-(4-chlorophenyl)ethoxy]quinoline]	0 to 19	20 to 89	20 to 89	0 to 19	90 to 100		0		100		100		0	
Clc1ccccc1CCOc1ccnc2c(Cl)cccc12 [Example 216, 8-chloro-4-[2-(2-chlorophenyl)ethoxy]quinoline]	90 to 100	90 to 100	90 to 100	0 to 19	90 to 100		0		0		0		100	
CC(C)c1ccccc1CCOc1ccnc2c(F)cccc12 [Example 217, 8-fluoro-4-[2-(2-(1-methylethyl)phenyl)ethoxy]quinoline]	90 to 100	90 to 100	90 to 100	0 to 19	90 to 100		0		0		0		0	
Fc1cccc2c(OCCc3cccc(Sc4ccccc4)c3)ccnc12 [Example 218, 8-fluoro-4-[2-(3-(phenylthio)phenyl)ethoxy]quinoline]	90 to 100	90 to 100	90 to 100	0 to 19	90 to 100		100		0		0		0	
Fc1cccc2c(OCCc3ccc(Br)cc3)ccnc12 [Example 223, 4-[2-(4-bromophenyl)ethoxy]-8-fluoroquinoline]	90 to 100	90 to 100	90 to 100	0 to 19	0 to 19	0	0	0	0	80	100	80	0	
Clc1ccc(CCOc2ccnc3cc(Cl)ccc23)cc1 [Example 226, 7-chloro-4-[2-(4-chlorophenyl)ethoxy]quinoline]	20 to 89	0 to 19	20 to 89	0 to 19	20 to 89	0	0	0	0	0	0	0	0	
Cc1cc(C)c(CCOc2ccnc3c(F)cccc23)c(C)c1 [Example 227, 8-fluoro-4-[2-(2,4,6-trimethylphenyl)ethoxy]quinoline]	0 to 19	20 to 89	20 to 89	0 to 19	0 to 19	0	0	0	0	0	0	0	0	
CC(C)(C)c1ccc(CCOc2ccnc3cc(Cl)ccc23)cc1 [Example 231, 7-chloro-4-[2-(4-(t-butyl)phenyl)ethoxy]quinoline]	20 to 89	0 to 19	0 to 19	0 to 19	0 to 19	0	0	90	40	0	50	0	0	particularly excellent activity
CC(C)(C)c1ccc(CCOc2ccnc3cc(F)ccc23)cc1 [Example 232, 4-[2-(4-(t-butyl)phenyl)ethoxy]-7-fluoroquinoline]	0 to 19	0 to 19	0 to 19	0 to 19	0 to 19	0	30	100	80	70	40	0	0	particularly excellent activity
Fc1cccc2c(OCCc3ccccc3-c3ccccc3)ccnc12 [Example 237, 8-fluoro-4-[2-(1,1'-biphenyl)-2-yl-ethoxy]quinoline]	90 to 100	90 to 100	20 to 89	0 to 19	0 to 19	0	0	0	100	0	0	0	0	particularly excellent activity

From patent EP0326331B1, “Substituted quinolines and cinnolines” (Dow AgroSciences LLC, priority 1988, dated 1989)
